Consider eight compounds from patent publication US20190330224A1, “ACC INHIBITORS AND USES THEREOF” (Gilead Apollo, LLC, priority 2015, published 2019).

For orientation: IC50 means the concentration needed to halve the response being measured. The low end stands for greater potency, the high end for weaker potency.

Human ACC2, sequence (O00763 whole entry): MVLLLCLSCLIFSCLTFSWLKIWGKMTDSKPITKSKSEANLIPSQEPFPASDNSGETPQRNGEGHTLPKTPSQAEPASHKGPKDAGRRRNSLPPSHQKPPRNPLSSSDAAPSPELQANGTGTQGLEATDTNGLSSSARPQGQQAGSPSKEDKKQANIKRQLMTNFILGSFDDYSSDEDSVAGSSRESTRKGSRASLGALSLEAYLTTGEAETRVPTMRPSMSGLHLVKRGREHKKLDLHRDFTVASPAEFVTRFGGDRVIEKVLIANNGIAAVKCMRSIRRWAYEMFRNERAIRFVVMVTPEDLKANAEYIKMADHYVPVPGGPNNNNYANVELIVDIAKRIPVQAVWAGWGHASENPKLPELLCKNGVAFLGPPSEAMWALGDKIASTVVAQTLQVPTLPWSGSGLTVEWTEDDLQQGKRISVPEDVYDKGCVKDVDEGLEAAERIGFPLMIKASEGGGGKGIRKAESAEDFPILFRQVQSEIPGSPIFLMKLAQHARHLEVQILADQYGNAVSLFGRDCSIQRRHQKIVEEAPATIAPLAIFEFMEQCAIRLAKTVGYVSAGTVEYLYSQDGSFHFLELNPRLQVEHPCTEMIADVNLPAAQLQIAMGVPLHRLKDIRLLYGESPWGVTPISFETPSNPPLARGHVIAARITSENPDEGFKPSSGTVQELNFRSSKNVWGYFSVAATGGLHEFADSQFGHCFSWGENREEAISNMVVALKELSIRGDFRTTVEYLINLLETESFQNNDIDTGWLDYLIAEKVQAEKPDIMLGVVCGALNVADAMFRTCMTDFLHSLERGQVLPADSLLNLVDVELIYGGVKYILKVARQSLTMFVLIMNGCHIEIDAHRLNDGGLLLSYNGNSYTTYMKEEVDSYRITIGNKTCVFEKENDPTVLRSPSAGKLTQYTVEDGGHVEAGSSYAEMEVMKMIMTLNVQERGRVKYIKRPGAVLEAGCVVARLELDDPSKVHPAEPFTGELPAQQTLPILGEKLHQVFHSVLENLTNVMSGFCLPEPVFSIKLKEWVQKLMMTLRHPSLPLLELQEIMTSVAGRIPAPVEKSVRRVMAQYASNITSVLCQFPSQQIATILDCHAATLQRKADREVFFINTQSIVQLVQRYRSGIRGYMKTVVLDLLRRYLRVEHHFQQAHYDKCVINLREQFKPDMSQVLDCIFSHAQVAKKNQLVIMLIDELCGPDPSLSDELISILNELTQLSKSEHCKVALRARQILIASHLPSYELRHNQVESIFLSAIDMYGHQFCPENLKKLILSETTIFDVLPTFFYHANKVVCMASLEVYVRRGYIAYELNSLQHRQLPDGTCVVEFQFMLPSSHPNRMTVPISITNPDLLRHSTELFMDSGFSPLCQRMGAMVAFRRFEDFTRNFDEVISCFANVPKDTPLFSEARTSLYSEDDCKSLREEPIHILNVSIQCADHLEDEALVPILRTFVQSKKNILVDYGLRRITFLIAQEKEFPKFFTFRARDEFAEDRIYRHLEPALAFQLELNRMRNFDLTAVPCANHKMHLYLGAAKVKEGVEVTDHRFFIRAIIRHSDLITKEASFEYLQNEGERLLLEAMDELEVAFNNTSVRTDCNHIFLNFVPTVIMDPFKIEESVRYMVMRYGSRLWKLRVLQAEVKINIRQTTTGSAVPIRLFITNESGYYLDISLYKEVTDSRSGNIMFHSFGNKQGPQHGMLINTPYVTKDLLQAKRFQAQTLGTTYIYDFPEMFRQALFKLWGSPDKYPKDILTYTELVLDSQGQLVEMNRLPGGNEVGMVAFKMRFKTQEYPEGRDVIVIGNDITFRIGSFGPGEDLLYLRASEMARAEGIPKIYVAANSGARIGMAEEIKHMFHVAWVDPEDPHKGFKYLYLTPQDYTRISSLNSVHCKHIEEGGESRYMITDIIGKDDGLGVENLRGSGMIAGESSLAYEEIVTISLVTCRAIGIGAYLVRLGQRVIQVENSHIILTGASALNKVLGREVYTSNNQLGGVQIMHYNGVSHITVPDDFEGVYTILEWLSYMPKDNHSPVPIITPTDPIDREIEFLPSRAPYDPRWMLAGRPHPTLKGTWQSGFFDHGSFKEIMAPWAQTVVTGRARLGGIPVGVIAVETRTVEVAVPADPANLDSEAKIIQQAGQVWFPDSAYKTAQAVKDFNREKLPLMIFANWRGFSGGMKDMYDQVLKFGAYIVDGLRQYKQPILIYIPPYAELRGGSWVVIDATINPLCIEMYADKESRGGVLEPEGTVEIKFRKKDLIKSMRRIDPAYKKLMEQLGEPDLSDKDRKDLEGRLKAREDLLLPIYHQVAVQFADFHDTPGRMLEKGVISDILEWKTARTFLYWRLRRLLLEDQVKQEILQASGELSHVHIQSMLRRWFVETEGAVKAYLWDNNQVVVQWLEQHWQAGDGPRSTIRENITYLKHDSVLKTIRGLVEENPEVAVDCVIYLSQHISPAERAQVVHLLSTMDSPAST

This test has as its target Human ACC2 (Homo sapiens, UniProt O00763). Nature of the test: In vitro ACC2 inhibition assay (ADP-Glo), human ACC2. It counts as biochemical. The following applies: 5 nM ACC2, 20 μM ATP, 20 μM acetyl-CoA. A general note: ADP-Glo turns the ADP formed in a reaction into a luminescent signal.
`COc1ccc(F)cc1[C@H](Cn1c(=O)n([C@]2(C)CCN(C)C2=O)c(=O)c2c(C)c(-n3nccn3)sc21)OCCO` [Compound I-147, 3-((R)-1,3-dimethyl-2-oxopyrrolidin-3-yl)-1-((R)-2-(5-fluoro-2-methoxyphenyl)-2-(2-hydroxyethoxy)ethyl)-5-methyl-6-(2H-1,2,3-triazol-2-yl)thieno[2,3-d]pyrimidine-2,4(1H,3H)-dione] showed an IC50 greater than 1000 nM. With `COc1ccc(F)cc1[C@H](Cn1c(=O)n(C2CCN(C(C)C)C2=O)c(=O)c2c(C)c(-n3nccn3)sc21)OCCO` (stereo partly drawn) [Compound I-8, 1-((R)-2-(5-fluoro-2-methoxyphenyl)-2-(2-hydroxyethoxy)ethyl)-3-(1-isopropyl-2-oxopyrrolidin-3-yl)-5-methyl-6-(2H-1,2,3-triazol-2-yl)thieno[2,3-d]pyrimidine-2,4(1H,3H)-dione], the IC50 was in the range of 2 to 10 nM. For `COc1ccc(F)cc1[C@H](Cn1c(=O)n([C@@]2(C)CCN(C)C2=O)c(=O)c2c(C)c(-n3nccn3)sc21)OCCO` [Compound I-149, 3-((S)-1,3-dimethyl-2-oxopyrrolidin-3-yl)-1-((R)-2-(5-fluoro-2-methoxyphenyl)-2-(2-hydroxyethoxy)ethyl)-5-methyl-6-(2H-1,2,3-triazol-2-yl)thieno[2,3-d]pyrimidine-2,4(1H,3H)-dione] the value was greater than 1000 nM. For `COc1ccc(F)cc1[C@H](Cn1c(=O)n([C@@]2(C)CCNC2=O)c(=O)c2c(C)c(-n3nccn3)sc21)OCCO` [Compound I-145, 1-((R)-2-(5-fluoro-2-methoxyphenyl)-2-(2-hydroxy-ethoxy)ethyl)-5-methyl-3-((S)-3-methyl-2-oxopyrrolidin-3-yl)-6-(2H-1,2,3-triazol-2-yl)thieno[2,3-d]pyrimidine-2,4(1H,3H)-dione] the value was greater than 1000 nM; for `COc1ccc(F)cc1[C@H](Cn1c(=O)n(C2CCNC2=O)c(=O)c2c(C)c(-n3nccn3)sc21)OC1CCOCC1` (stereo partly drawn) [Compound I-9, 1-((R)-2-(5-fluoro-2-methoxyphenyl)-2-((tetrahydro-2H-pyran-4-yl)oxy)ethyl)-5-methyl-3-(2-oxopyrrolidin-3-yl)-6-(22H-1,2,3-triazol-2-yl)thieno[2,3-d]pyrimidine-2,4(1H,3H)-dione], 2 to 10 nM; for `COc1ccc(F)cc1[C@H](Cn1c(=O)n([C@@H]2CCCN(C(C)C)C2=O)c(=O)c2c(C)c(-n3nccn3)sc21)OC1CCOCC1` [Compound I-77, 1-((R)-2-(5-fluoro-2-methoxyphenyl)-2-((tetrahydro-2H-pyran-4-yl)oxy)ethyl)-3-((R)-1-isopropyl-2-oxopiperidin-3-yl)-5-methyl-6-(2H-1,2,3-triazol-2-yl)thieno[2,3-d]pyrimidine-2,4(1H,3H)-dione], 2 to 10 nM. Take `COc1ccc(F)cc1[C@H](Cn1c(=O)n([C@H]2CCCN(C(C)C)C2=O)c(=O)c2c(C)c(-n3nccn3)sc21)OC1CCOCC1` [Compound I-76, 1-((R)-2-(5-fluoro-2-methoxyphenyl)-2-((tetrahydro-2H-pyran-4-yl)oxy)ethyl)-3-((S)-1-isopropyl-2-oxopiperidin-3-yl)-5-methyl-6-(2H-1,2,3-triazol-2-yl)thieno[2,3-d]pyrimidine-2,4(1H,3H)-dione]: the IC50 is 10 to 100 nM. In turn, `COc1ccc(F)cc1[C@H](Cn1c(=O)n([C@]2(C)CCNC2=O)c(=O)c2c(C)c(-n3nccn3)sc21)OCCO` [Compound I-144, 1-((R)-2-(5-fluoro-2-methoxyphenyl)-2-(2-hydroxyethoxy)ethyl)-5-methyl-3-((R)-3-methyl-2-oxopyrrolidin-3-yl)-6-(2H-1,2,3-triazol-2-yl)thieno[2,3-d]pyrimidine-2,4(1H,3H)-dione] gave an IC50 greater than 1000 nM.
